# Experimental data from patent US10165776B2, “Substituted pyrazolylpyrazole derivative and use of same as herbicide” (KYOYU AGRI CO., LTD., priority 2015, dated 2019).
# Tested on: Digitaria ciliaris
# Assay: Weed foliar treatment test (Test 4, 4.0 to 5.0 leaf stage)
# Assay type: in vivo
# Details: 10 g a.i./10 a; foliar spray at 4.0 to 5.0 leaf stage of Digitaria ciliaris (plant height 10 cm to 15 cm); 20 days at 25° C.
# Method: (§1) Field soil was filled into a 1/4500 are pot followed by seeding with Digitaria ciliaris and Galinsoga parviflora, covering with soil and cultivating in a glass greenhouse at an average atmospheric temperature of 25° C. Wettable powders of Target Compound (I) shown in Table 1 prepared in compliance with the preparation examples were diluted with water to the prescribed amount of chemical and uniformly sprayed onto the weeds using 100 liters of sprayed water per 10 are when Digitaria ciliaris had grown to the 4.0 to 5.0 leaf stage (plant height: 10 cm to 15 cm). After treating for 20 days in a glass greenhouse at an average atmospheric temperature of 25° C., the herbicidal efficacy thereof was investigated. Evaluation of herbicidal efficacy was carried out in the same manner as the above-mentioned Test Example 1.
row,SMILES,"herbicidal efficacy, Digitaria ciliaris"
1,COc1cccc(CC(=O)Nc2c(C#N)cnn2-c2nn3c(c2Cl)CCCC3)c1 [Compound 10],10 (10: 100%)
2,N#Cc1cnn(-c2nn3c(c2Cl)CCCC3)c1NC(=O)Cc1ccccc1Cl [Compound 8],10 (10: 100%)
3,N#Cc1cnn(-c2nn3c(c2Br)CCCC3)c1NC(=O)Cc1ccccc1 [Compound 4],10 (10: 100%)
4,N#Cc1cnn(-c2nn3c(c2Cl)CCCC3)c1NC(=O)Cc1cccc(Cl)c1 [Compound 12],10 (10: 100%)
5,N#Cc1cnn(-c2nn3c(c2Cl)CCC3)c1NC(=O)Cc1ccccc1 [Compound 2],10 (10: 100%)
6,N#Cc1cnn(-c2nn3c(c2Cl)CCCC3)c1NC(=O)Cc1ccc(C(F)(F)F)cc1 [Compound 17],10 (10: 100%)
7,COc1ccc(CC(=O)Nc2c(C#N)cnn2-c2nn3c(c2Cl)CCCC3)cc1 [Compound 14],10 (10: 100%)

# Tested on: Galinsoga parviflora
# Assay: as above
# Assay type: in vivo
# Details: 10 g a.i./10 a; foliar spray at 4.0 to 5.0 leaf stage of Digitaria ciliaris (plant height 10 cm to 15 cm); 20 days at 25° C.
# Method: as §1
row,SMILES,"herbicidal efficacy, Galinsoga parviflora"
1,COc1cccc(CC(=O)Nc2c(C#N)cnn2-c2nn3c(c2Cl)CCCC3)c1 [Compound 10],10 (10: 100%)
2,N#Cc1cnn(-c2nn3c(c2Cl)CCCC3)c1NC(=O)Cc1ccccc1Cl [Compound 8],10 (10: 100%)
3,N#Cc1cnn(-c2nn3c(c2Br)CCCC3)c1NC(=O)Cc1ccccc1 [Compound 4],10 (10: 100%)
4,N#Cc1cnn(-c2nn3c(c2Cl)CCCC3)c1NC(=O)Cc1cccc(Cl)c1 [Compound 12],10 (10: 100%)
5,N#Cc1cnn(-c2nn3c(c2Cl)CCC3)c1NC(=O)Cc1ccccc1 [Compound 2],10 (10: 100%)
6,N#Cc1cnn(-c2nn3c(c2Cl)CCCC3)c1NC(=O)Cc1ccc(C(F)(F)F)cc1 [Compound 17],10 (10: 100%)
7,COc1ccc(CC(=O)Nc2c(C#N)cnn2-c2nn3c(c2Cl)CCCC3)cc1 [Compound 14],10 (10: 100%)
